From patent US8846567B2, “Active compound combinations having insecticidal and acaricidal properties” (priority 2009, dated 2014)
Read-outs that look alike come from different tables or passages of the source.

Tests used:
Format in all cases: in vivo
Myzus persicae = conditions: 0.8 g/ha, single active compound
Description: (§1) If the actual insecticidal or acaricidal kill rate exceeds the calculated value, the kill of the combination is superadditive, i.e. a synergistic effect is present. In this case, the actually observed kill rate must exceed the value calculated using the above formula for the expected kill rate (E).
(§2) • Solvents: 78 parts by weight of acetone 1.5 parts by weight of dimethylformamide • Emulsifier: 0.5 part by weight of alkylaryl polyglycol ether
After the desired period of time, the kill in % is determined 100% means that all of the aphids have been killed; 0% means that none of the aphids have been killed. The kill rates determined are entered into Colby's formula (see above).

Phaedon cochleariae = system: Phaedon cochleariae
Description: as §1, §2
After the desired period of time, the kill in % is determined 100% means that all beetle larvae have been killed; 0% means that none of the beetle larvae have been killed. The kill rates determined are entered into Colby's formula (see above).

Spodoptera frugiperda = Spodoptera frugiperda test (sprayed cabbage leaves); conditions: single active compound
Description: The expected action for a given combination of two active compounds can be calculated according to S. R. Colby, Weeds 15 (1967), 20-22, as follows:
as §1, §2
To produce a suitable preparation of active compound, 1 part by weight of active compound is mixed with the stated amount of solvent and emulsifier, and the concentrate is diluted with emulsifier-containing water to the desired concentration.
Cabbage leaves (Brassica oleracea) are treated by being sprayed with the preparation of active compound of the desired concentration and are populated with larvae of the armyworm (Spodoptera frugiperda) while the leaves are still moist.
After the desired period of time, the kill in % is determined 100% means that all caterpillars have been killed; 0% means that none of the caterpillars have been killed. The kill rates determined are entered into Colby's formula (see above).

[1] = 20 g/ha, after 6 d, single active compound
[2] = 100 g/ha, after 6 d, single active compound
[3] = 4 g/ha, after 6 d, single active compound
[4] = 20 g/ha, single active compound

| Molecule | Kill in % after 6 d (Myzus persicae) [%] | Kill In % after 6d (Phaedon cochleariae; [1]) [%] | Kill In % after 6d (Phaedon cochleariae; [2]) [%] | Kill in % after 6 d (Spodoptera frugiperda; 4 g/ha) [%] | Kill in % after 6 d (Spodoptera frugiperda; 20 g/ha) [%] | Kill In % after 2d (Phaedon cochleariae; [4]) [%] | Kill In % after 2d (Phaedon cochleariae; 4 g/ha, single active compound) [%] | also measured |
| --- | --- | --- | --- | --- | --- | --- | --- | --- |
| CS/C(C)=N/OC(=O)N(C)SN(C)C(=O)O/N=C(\C)SC [thiodicarb] | 0 | 0 | 0 | 50 | 83 | – | – | Kill in % after 1d (Myzus persicae): 0% |
| O=C1C=C(N(Cc2ccc(Cl)nc2)CC(F)F)CO1 [compound (I-5), 4-{[(6-chloropyrid-3-yl)methyl](2,2-difluoroethyl)amino}furan-2(5H)-one] | – | – | 67 | 0 | – | 17 | – | Kill In % after 6d (Phaedon cochleariae; [3]): 0% |
| methiocarb | 0 | – | – | – | – | – | 17 | – |
| COP(N)(=O)SC (stereo not drawn) [methamidophos] | 0 | – | – | – | 67 | – | – | – |
| COP(=O)(NC(C)=O)SC (stereo not drawn) [acephate] | 0 | 0 | 0 | – | – | – | – | – |
| CCCSP(=O)(OCC)SCCC [ethoprofos, ethoprophos] | – | – | – | – | – | – | – | Kill In % after 6d (Phaedon cochleariae; in vivo): 0% |
| CCOP(=O)(NC(C)C)Oc1ccc(SC)c(C)c1 (stereo not drawn) [fenamiphos] | 0 | – | – | – | – | – | – | – |
| CCOP(=S)(OCC)Oc1nc(Cl)c(Cl)cc1Cl [chlorpyriphos, chlorpyrifos] | – | – | – | 67 | – | 50 | 0 | – |
| O=C1C=C(N(CCF)Cc2ccc(Cl)nc2)CO1 [compound (I-4), 4-{[(6-chloropyrid-3-yl)methyl](2-fluoroethyl)amino}furan-2(5H)-one] | – | – | 50 | – | 0 | – | 0 | Kill in % after 1d (Myzus persicae): 20%; Kill In % after 6d (Phaedon cochleariae; [3]): 0%; Kill In % after 2d (Phaedon cochleariae; 100 g/ha, single active compound): 50% |
| CN(Cc1cnc(Cl)c(F)c1)C1=CC(=O)OC1 [compound (I-6), 4-{[(6-chloro-5-fluoropyrid-3-yl)methyl](methyl)amino}furan-2(5H)-one] | 80 | 17 | – | 0 | 0 | 0 | – | – |
